The text below walks through data of patent publication US11304956B2, “Use of 7-bromo-5-(O-chlorophenyl)-3-propoxy-1,2-dihydro-3H-1,4-benzodiazepin-2-one for inhibition of neuropathic pain and seizures of different etiology” (priority 2016, dated 2022).

One data set concerns gastric mucosa. In words: Ulcerogenic effect, chronic experiment (28 days intragastric). Format: in vivo, rats. To be noted: 0.5 mg/kg intragastrally for 28 days, n = 14. The method, then: Evaluation of ulcerogenic action was carried out on a 4-score scale:
0 score—no damage; 0.5 score—hyperemia (blood vessels overflow)
1 score—single minor lesions (1-3 point hemorrhages or small ulcers)
2 score—multiple (more than 3) lesions (erosions, pinpoint hemorrhages) or 1 large ulcer
3 score—significant and massive damages (erosions, hemorrhages) of the gastric mucosa with significant size (diameter up to 4 mm)
4 score—gross injuries (massive hemorrhages, erosions, perforations) that cover the entire surface of the gastric mucosa.
The average multiplicity index of damage to the gastric mucosa (the number of ulcers per animal) and the severity of the damage (in scores) were determined.
To determine the safety of this compound in a chronic trial during long-term administration, it was administered to rats for 28 days at a dose close to ED50 by analgesic effect (0.5 mg/kg).
The data presented indicate that there is no serious damage to the stomach from the test compound, even when administered at very high doses, several orders higher than the average effective doses, and which are close to the upper limit of permitted doses that can be administered to rats once. Therefore, at the next stage it became reasonable to determine the effect of Compound 1 on the stomach after prolonged use (28 days) in an average effective dose of 0.5 mg/kg.

Data set [1] relates to pentylenetetrazole-induced convulsions. In words: Pentylenetetrazole-induced seizures. It is filed as in vivo, non-linear male mice. To be noted: Mus musculus, sc; mice; pentylenetetrazole 120 mg/kg subcutaneously; interval (0.83-0.97) printed on the next line; read-out: Anticonvulsive activity (ED50), Pentylenetetrazole. An excerpt:
(§1) In many cases, the presence of anticonvulsant (antiepileptic) effect of the compounds correlates with analgesic properties on corresponding models of neuralgia. As a general step is a primary screening of new anticonvulsant compounds on rodents with the help of pentylenetetrazole test and MES (maximal electroshock seizures) as they have a qualitative difference in development and manifestations of seizures. It is believed that the compound ability to prevent the MES-induced seizures is connected with impulse spread inhibition throughout the central nervous system. It is believed that the ability to prevent the MES-induced seizures development indicates the potential efficacy of the compound in the preventing propagation of a pulse along the neural tissue (see Tompson E. Medicines. Bioscreening/Under the editorship of A. V. Stefanova.-K.: Avitsenna, 1998.—250 p.).
The experiments were performed on non-linear male mice weighing 19-29 g. Pentylenetetrazole was administered subcutaneously in the cervical region of the back. […]
For MES-induced seizures experimental animals were exposed to electric stimulation through the corneal electrodes (50 Hz, 50 mA for mice during 0.2 s). The number of animals with the maximum tonic extension of the hind limbs, which occurs in almost 100% of the animals in the control group, was calculated. […]

The test system of data set [2] is acetic acid "writhing" test. To be noted: intraperitoneal administration of acetic acid; earlier work of the applicants; cited from earlier work.
In data set [3] the test system is model of neuropathic pain in rats. In words: Model of neuropathic pain (sciatic nerve ligation), threshold of pain sensitivity by dolorimeter. Format: in vivo, male Wistar rats. To be noted: for Changes in the threshold of pain perception, regarding healthy limb: damaged vs healthy limb before administration (baseline); for Threshold of pain sensitivity, damaged limb / Threshold of pain sensitivity, healthy limb: day 14 after ligation, before administration (baseline), M±m, n=10; for Threshold of pain sensitivity 2 hours after compounds administration: damaged limb. The method, then:
An evaluation of the antinociceptive action of the test compound (1) on a model of neuropathic pain was carried out on 50 male Wistar rats weighing 270-310 g. The model of neuropathic pain was reproduced by ligation of the sciatic nerve at the level of the upper third of the thigh at the level of the popliteal fossa higher than the site of its trifurcation by N. tibialis, N. peroneus and N. suralis (see Mironov A. N. et al. Guidelines for conducting preclinical studies of drugs. Part one.—Moscow 2012. p. 197-219). The development of the pathological process lasted 14 days. The degree of hyperalgesia was determined using a dolorimeter (Dolorimeter Baseline, USA) by determining the threshold of pain sensitivity (TPS)—the minimum pressure on the lower surface of the rat's foot (g/mm^2), which caused pain in the animal (vocalization and/or withdrawal of the foot). Each animal was given 5 attempts; the threshold value was taken with such a pressure force, which caused a positive response in at least one attempt. The threshold of pain sensitivity was compared on intact and damaged limbs on day 14 after ligation (pathology without treatment), as well as on the injured limb after 2 hours (peak of action) after the drugs administration. The test compound and the reference drug (ketorolac) were administered intragastrally (as gavage) once at doses of 0.5 and 3 mg/kg. Sciatic nerve ligation in animals caused the development of neuropathic pain syndrome, which manifested itself in behavioral reactions of the rat and lowering the threshold of pain sensitivity by an average of 44-48% (see Table 1). The analgesic effect of Compound 1 compared with ketorolac under the conditions of their intragastral administration on the model of neuropathic pain in rats (M±m, n=10, where n is the number of animals in the experiments) is shown in Table 1.

In a further data set the test system is MES-induced seizures. Briefly: Maximal electroshock (MES) seizures. Format: in vivo, non-linear male mice. The note with it: Mus musculus; mice; corneal electrodes 50 Hz, 50 mA, 0.2 s; interval in brackets; read-out: Anticonvulsive activity (ED50), MES.
Source text: as §1
For MES-induced seizures experimental animals were exposed to electric stimulation through the corneal electrodes (50 Hz, 50 mA for mice during 0.2 s). The number of animals with the maximum tonic extension of the hind limbs, which occurs in almost 100% of the animals in the control group, was calculated. For the statistically significant determination of ED50, 3 doses of the test compound were used; the effect of each dose was studied in 6-8 animals.

`CCCOC1N=C(c2ccccc2Cl)c2cc(Br)ccc2NC1=O` (stereo not shown) [Compound 1, 7-bromo-5-(o-chlorophenyl)-3-propoxy-1,2-dihydro-3H-1,4-benzodiazepin-2-one]: in the data set with gastric mucosa, the “Number of animals with different degrees lesions of the gastric mucosa, score 1” value was found to be 4; the “Number of animals with different degrees lesions of the gastric mucosa, score 3” value is 0; the “Number of animals with different degrees lesions of the gastric mucosa, score 4” value is reported as 0; the “The multiplicity of damage” value stood at 0.5±0.23. Also, the Average score in the data set on gastric mucosa (4-score scale) turned out to be 0.4±0.17. Further, in data set [1], the 50% effective dose (ED50) worked out at 0.91 mg/kg. Further, in data set [2], the “Analgesic activity in the "writhing" test” value is “high analgesic activity”. Moreover, in data set [3] (0.5 mg/kg group), the “Changes in the threshold of pain perception, regarding healthy limb” value was −48.4 ± 4.6%; the “Threshold of pain sensitivity, damaged limb” value worked out at 223.5 ± 20.1 g/mm^2; the “Threshold of pain sensitivity, healthy limb” value is on record as 434.3 ± 13.4 g/mm^2. Also, the “Threshold of pain sensitivity 2 hours after compounds administration” value in data set [3] (0.5 mg/kg intragastrally once) came to 269.3 ± 19.4 g/mm^2. Moreover, in data set [3] (3 mg/kg group), the “Changes in the threshold of pain perception, regarding healthy limb” value is −44.3 ± 2.9%; the “Threshold of pain sensitivity, damaged limb” value stood at 295.7 ± 29.9 g/mm^2; the “Threshold of pain sensitivity, healthy limb” value turned out to be 523.6 ± 28.1 g/mm^2. In data set [3] (3 mg/kg intragastrally once), the “Threshold of pain sensitivity 2 hours after compounds administration” value worked out at 532.8 ± 47.1 g/mm^2. Besides, the median effective dose (ED50) in the data set with MES-induced seizures worked out at 8.2 mg/kg.
